# Measured values as given in patent US12233053B2, “Adenosine A3 receptor antagonists for treating aging skin and wounds” (ORADIN PHARMACEUTICAL LTD., priority 2021, dated 2025).
# What was measured:
# B16-F1 melanocytes [1] = assay: Scratch assay (gap size, cell migration), melanocytes; assay type: cell-based; conditions: 10 μM, 24 hours, B16-F1, FIG. 4E
# Description: FIGS. 4A-E show bar graphs of the gap size in a scratch assay of different cell types in culture. FIGS. 4A-B show bar graphs of the gap size of HaCaT keratinocyte cells (A) and 3T3 fibroblast cells (B) 24 hours after treatment with increasing concentrations of MRS-1523 in the scratch assay. FIGS. 4C-E show bar graphs of the gap size of HaCAT cells (FIG. 4C), 3T3 fibroblasts (FIG. 4D), and B16-F1 melanocytes (FIG. 4E) after 24-hour treatment with 10 μM MRS-1523 in the scratch assay. *p<0.05, **p<0.01 by Student T-test.
# (§1) Keratinocyte HaCaT cells or 3T3 fibroblast cells (10^6 cells) were grown in 35 mm petri dishes in DMEM containing 10% FCS overnight. Thereafter, the cell cultures were scratched using 20 μl pipet tip in the middle of the culture plate, the cells were washed three times, and then MRS-1523 (at concentrations of 10 nM to 10 μM in DMEM containing 10% FCS) was added to each scratched plate and incubated with the cells for 24 hours. The gap size in plates of MRS-1523 treated cells was compared to the gap size in plates of control cells which were scratched and incubated for 24 hours in DMEM containing 10% FCS in the absence of MRS-1523. The results are presented as mean±SD. Statistical significance was determined by Student T-test.
# 3T3 fibroblast cells [2] = system: 3T3 fibroblast cells
# Description: (§2) Cell viability was then measured using Alamar blue (AB) assay according to the manufacturer's instructions. Briefly, the cells were rinsed with PBS, and 0.2 ml of an AB solution (10% (v/v) of AB dye in DMEM) were added to each well. After incubation of 3 hours, AB fluorescence was quantified at the excitation and emission wavelengths of 540 and 595 nm, respectively, using a Tecan Genios microplate reader. The results are given as mean±SD. Statistical significance was determined by Student T-Test.
# HaCaT keratinocyte cells [3] = assay: Scratch assay (gap size, cell migration), keratinocytes; assay type: cell-based, human; conditions: 24 hours
# Description: as §1
# HaCaT cells = assay: Differentiation markers PAR-2 and Filaggrin in keratinocytes (immunostaining); assay type: cell-based, human; conditions: 10 μM, 24 hours
# Description: HaCaT cells were grown in DMEM containing 10% FCS for 24 hours. The cells were then treated with 10 μM MRS-1523 for 24 hours, washed with PBS, and fixed with 4% paraformaldehyde for 1 hour. Fixed cells were washed and incubated with the following primary antibodies (Sigma): anti-PAR-2 (Clone SAM11 produced in mouse, reactive to mouse and human) followed by secondary antibodies, anti-mouse antibodies conjugated to FITC, or anti-Filaggrin (FLG; produced in rabbit) followed by secondary antibodies, anti-rabbit antibodies conjugated to Alexa Fluor® 488.
# B16-F1 melanocytes [4] = system: B16-F1 melanocytes
# Description: HaCaT cells or 3T3 cells (2×10^4) were incubated in 96-well Elisa plates in DMEM containing 10% fetal calf serum (FCS) in the presence of increasing concentrations of MRS-1523 for 24 hours. Cell viability was then measured using Alamar blue (AB) assay according to the manufacturer's instructions. Briefly, the cells were rinsed with PBS, and 0.2 ml of an AB solution (10% (v/v) of AB dye in DMEM) were added to each well. After incubation of 3 hours, AB fluorescence was quantified at the excitation and emission wavelengths of 540 and 595 nm, respectively, using a Tecan Genios microplate reader. The results are given as mean±SD. Statistical significance was determined by Student T-Test.
# skin explants = assay: Fibroblast and collagen staining of skin explants (H&E, Fontana-Masson); set-up: species or system human; conditions: 10 μM, 12 days
# Description: Skin explants were treated with MRS-1523 (10 μM) for 12 days. Thereafter, the skin explants were stained with hematoxylin and eosin (H&E; FIGS. 5A and 5C) or with Fontana-Masson (FIGS. 5B and 5D).
# 3T3 fibroblast cells [5] = assay: Collagen-1 and F-actin expression in fibroblasts (confocal fluorescence); assay type: cell-based; conditions: 10 μM, 24 hours
# Description: The effect of MRS-1523 on collagen level in fibroblasts in culture was next examined. 3T3-fibroblast cells were grown in DMEM containing 10% FCS for 24 hours, and then were treated with 10 μM MRS-1523 for additional 24 hours. Thereafter, the presence of collagen or F-actin was evaluated as follows: the cells were incubated with rabbit anti-collagen-1 antibodies, and then with Alexa Fluor® 488-conjugated goat anti-rabbit antibodies to detect collagen-1 (green staining). Detection of F-actin was performed by F-actin-Phalloidin-staining (red staining). Cell nuclei were stained with 4′,6-diamidino-2-phenylindole (DAPI; blue staining).
# 3T3 fibroblast cells [6] = assay: Scratch assay (gap size, cell migration), fibroblasts; assay type: cell-based; conditions: 24 hours
# Description: as §1
# HaCaT keratinocyte cells [7] = conditions: 10 μM or lower concentrations, 24 hours
# Description: as §2
smiles,measurement,setting,value
"CCCOC(=O)c1c(-c2ccccc2)nc(CC)c(C(=O)SCC)c1CCC [MRS-1523, 3-propyl-6-ethyl-5[(ethylthio)carbonyl]-2-phenyl-4-propyl-3-pyridine carboxylate]",melanocytes migration,B16-F1 melanocytes [1],attenuated
same,toxic effect on fibroblasts,3T3 fibroblast cells [2],did not induce any toxic effect
same,fibroblast proliferation,"3T3 fibroblast cells [2]; 10 μM, 24 hours, 3T3",slight but significant increase
same,gap size vs control cells (cell migration),"HaCaT keratinocyte cells [3]; 0.01 μM-10 μM, FIG. 4A",significant reduction in the gap size
same,cell migration,"HaCaT keratinocyte cells [3]; 10 μM, FIG. 4C",significantly stimulated
same,expression of Filaggrin (FLG) vs control untreated cells,HaCaT cells,decrease
same,expression of PAR-2 vs control untreated cells,HaCaT cells,decrease
same,toxic effect on melanocyte cells,B16-F1 melanocytes [4],did not induce any toxic effect
same,melanocyte proliferation,"B16-F1 melanocytes [4]; 24 hours, B16-F1",promoted their proliferation
same,collagen levels in the dermis vs untreated skin explants,skin explants,increase
same,fibroblast levels in the dermis vs untreated skin explants,skin explants,increase
same,expression of F-actin vs control cells,3T3 fibroblast cells [5],not increased
same,expression of collagen-1 vs control untreated fibroblasts,3T3 fibroblast cells [5],increased expression
same,gap size vs control cells (cell migration),"3T3 fibroblast cells [6]; 0.01 μM-10 μM, 3T3, FIG. 4B",significant reduction in the gap size
same,cell migration,"3T3 fibroblast cells [6]; 10 μM, 3T3, FIG. 4D",significantly stimulated
same,stimulation of keratinocyte proliferation,HaCaT keratinocyte cells [7],8-16%
